Measured values: patent US20260014147A1, “STAT6 DEGRADERS” (Gilead Sciences, Inc., priority 2024, published 2026)

Legend:
[1] = target: T1, STAT6 (endogenous, HiBiT-tagged) in HeLa LgBiT clone 4.14 cells (Homo sapiens, UniProt P42226); experiment: STAT6 Degrader Assay (HiBiT based, HeLa LgBiT clone 4.14 cells, luminescence, DC50); format: cell-based; conditions: geometric mean; for DC50: DC50 provided for test compounds with >80% Emax, read-out: STAT6 degradation DC50
T1 construct: These cells express endogenous STAT6; host or cells: HeLa LgBiT clone 4.14
T1 sequence (P42226 1-847): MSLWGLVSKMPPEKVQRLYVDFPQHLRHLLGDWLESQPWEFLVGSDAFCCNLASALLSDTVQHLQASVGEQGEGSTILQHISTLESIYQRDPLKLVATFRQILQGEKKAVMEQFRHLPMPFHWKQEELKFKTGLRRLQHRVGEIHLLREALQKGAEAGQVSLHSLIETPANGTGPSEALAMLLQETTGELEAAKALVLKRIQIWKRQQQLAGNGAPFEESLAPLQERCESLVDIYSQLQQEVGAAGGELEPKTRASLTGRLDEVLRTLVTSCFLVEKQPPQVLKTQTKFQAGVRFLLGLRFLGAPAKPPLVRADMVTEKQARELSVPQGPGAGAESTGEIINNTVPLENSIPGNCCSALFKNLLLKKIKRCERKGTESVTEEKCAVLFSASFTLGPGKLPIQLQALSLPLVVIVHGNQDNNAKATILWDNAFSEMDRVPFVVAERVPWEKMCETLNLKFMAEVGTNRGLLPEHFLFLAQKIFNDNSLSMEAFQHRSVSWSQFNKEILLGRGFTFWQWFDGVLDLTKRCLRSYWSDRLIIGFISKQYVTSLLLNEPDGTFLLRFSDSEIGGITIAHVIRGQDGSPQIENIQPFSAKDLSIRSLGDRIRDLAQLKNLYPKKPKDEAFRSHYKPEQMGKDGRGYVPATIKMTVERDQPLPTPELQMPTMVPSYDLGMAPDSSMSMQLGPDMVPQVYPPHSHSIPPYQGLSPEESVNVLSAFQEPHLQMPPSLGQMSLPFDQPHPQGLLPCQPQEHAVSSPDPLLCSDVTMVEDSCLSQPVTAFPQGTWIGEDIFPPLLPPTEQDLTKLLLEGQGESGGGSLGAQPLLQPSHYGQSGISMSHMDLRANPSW
Method in brief: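 Remaining STAT6 is read as NanoBiT luminescence after 0.5 h with Nano-Glo, in HeLa LgBiT clone 4.14 cells expressing endogenous HiBiT-tagged STAT6, following 4-24 h compound incubation at 37 °C. Full degradation is set by 50 µM terfenadine, which kills the cells; degradation plotted against log compound concentration.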

[2] = test system: Eotaxin-3 (CCL26) release in human whole blood stimulated with IL-4; experiment: Human Whole Blood Eotaxin-3 Assay (IL-4 stimulated, inhibition of eotaxin-3 release); format: cell-based; conditions: Homo sapiens, EC50 provided for test compounds with >80% Emax, geometric mean across assay runs and batches
Method in brief: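 Lithium-heparin human whole blood preincubated 2 h at 37 °C with compounds (4-fold serial dilution, triplicate, 0.5% DMSO final), then stimulated with 400 pM IL-4 for 48 h. Eotaxin-3 (CCL26) in supernatant quantified by MSD immunoassay.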

DC50 [1] [nM] | EC50 [2] [nM] | Emax ([1]; Emax provided for test compounds with <80% Emax (and 2c15), read-out: STAT6 degradation Emax) [%] | Structure (SMILES)
24.7 | 86.7 |  | C[C@@H](c1cc2c(-c3ccc(N)nc3)ccnc2n1C)N1CCC(c2ccc(C(=O)N3CCn4nc(CN5CCN(c6ncc(NC7CCC(=O)NC7=O)cc6F)CC5)cc4C3)cc2)CC1 (stereo partly drawn) [Example 2q14, 3-((6-(4-((5-(4-(1-((S)-1-(4-(6-aminopyridin-3-yl)-1-methyl-1H-pyrrolo[2,3-b]pyridin-2-yl)ethyl)-piperidin-4-yl)benzoyl)-4,5,6,7-tetrahydropyrazolo[1,5-a]pyrazin-2-yl)methyl)piperazin-1-yl)-5-fluoropyridin-3-yl)amino)piperidine-2,6-dione]
4.8 | 39 |  | CO[C@@H](C)c1nc2cc(-c3ccnc4c3cc([C@H](C)N3CCC(c5ccc(C(=O)N6CCC(CN7CCN(c8ccc(NC9CCC(=O)NC9=O)cc8F)CC7)CC6)cc5)CC3)n4C)ccc2[nH]1 (stereo partly drawn) [Example 2c18, 3-((3-fluoro-4-(4-((1-(4-(1-((S)-1-(4-(2-((S)-1-methoxyethyl)-1H-benzo[d]imidazol-5-yl)-1-methyl-1H-pyrrolo[2,3-b]pyridin-2-yl)ethyl)piperidin-4-yl)benzoyl)piperidin-4-yl)methyl)piperazin-1-yl)phenyl)amino)piperidine-2,6-dione]
5.6 | 19.9 |  | C[C@@H](c1cc2c(-c3ccc(N)nc3)ccnc2n1C)N1CCC(c2ccc(C(=O)N3CCn4nc(CN5CCC(c6ncc(NC7CCC(=O)NC7=O)cc6F)CC5)cc4C3)cc2)CC1 (stereo partly drawn) [Example 2q6, 3-((6-(1-((5-(4-(1-((S)-1-(4-(6-aminopyridin-3-yl)-1-methyl-1H-pyrrolo[2,3-b]pyridin-2-yl)ethyl)-piperidin-4-yl)benzoyl)-4,5,6,7-tetrahydropyrazolo[1,5-a]pyrazin-2-yl)methyl)piperidin-4-yl)-5-fluoropyridin-3-yl)amino)piperidine-2,6-dione]
16.5 | 67.9 |  | COc1nc(N)ccc1-c1ccnc2c1cc([C@H](C)N1CCC(c3ccc(C(=O)N4CCC(CN5CCN(c6ccc(NC7CCC(=O)NC7=O)cc6F)CC5)CC4)cc3)CC1)n2C (stereo partly drawn) [Example 2c32, 3-((4-(4-((1-(4-(1-((S)-1-(4-(6-amino-2-methoxypyridin-3-yl)-1-methyl-1H-pyrrolo[2,3-b]pyridin-2-yl)ethyl)piperidin-4-yl)benzoyl)piperidin-4-yl)methyl)piperazin-1-yl)-3-fluorophenyl)amino)-piperidine-2,6-dione]
4.1 | 19.7 |  | COCc1nc2cc(-c3ccnc4c3cc([C@H](C)N3CCC(c5ccc(C(=O)N6CCC(CN7CCN(c8ccc(N[C@H]9CCC(=O)NC9=O)cc8F)C[C@H]7C)CC6)cc5)CC3)n4C)ccc2[nH]1 (single isomer, unassigned) [Example 2f12]
 | 141 | 70 to 80 | C[C@@H](c1cc2c(-c3ccc(N)nc3)ccnc2n1C)N1CCC(c2ccc(C(=O)N3CCC(CN4CCN(c5ccc(NC6CCC(=O)NC6=O)c(F)n5)CC4)CC3)cc2)CC1 (stereo partly drawn) [Example 2n9, 3-((6-(4-((1-(4-(1-((S)-1-(4-(6-aminopyridin-3-yl)-1-methyl-1H-pyrrolo[2,3-b]pyridin-2-yl)-ethyl)-piperidin-4-yl)benzoyl)piperidin-4-yl)methyl)piperazin-1-yl)-2-fluoropyridin-3-yl)amino)piperidine-2,6-dione]
6.8 | 37 |  | C[C@@H]1CN(c2ccc(NC3CCC(=O)NC3=O)cc2F)CCN1CC1CCN(C(=O)c2ccc(C3CCN([C@@H](C)c4cc5c(-c6ccc(N)nc6)ccnc5n4C)CC3)cc2)CC1 (stereo partly drawn) [Example 2f2, 3-((4-((R)-4-((1-(4-(1-((S)-1-(4-(6-aminopyridin-3-yl)-1-methyl-1H-pyrrolo[2,3-b]pyridin-2-yl)ethyl)piperidin-4-yl)benzoyl)piperidin-4-yl)methyl)-3-methylpiperazin-1-yl)-3-fluorophenyl)amino)-piperidine-2,6-dione]
21.3 | 104 |  | CNc1ccc(-c2ccnc3c2cc([C@H](C)N2CC=C(c4c(C)cc(C(=O)N5CCC(CN6CCN(c7ncc(NC8CCC(=O)NC8=O)cc7F)C[C@@H]6C)CC5)cc4F)CC2)n3C)cn1 (stereo partly drawn) [Example 2c45, 3-((5-fluoro-6-((S)-4-((1-(3-fluoro-5-methyl-4-(1-((S)-1-(1-methyl-4-(6-(methyl-amino)pyridin-3-yl)-1H-pyrrolo[2,3-b]pyridin-2-yl)ethyl)-1,2,3,6-tetrahydropyridin-4-yl)benzoyl)-piperidin-4-yl)methyl)-3-methylpiperazin-1-yl)pyridin-3-yl)amino)piperidine-2,6-dione]
69.2 | 249 |  | C[C@@H](c1cc2c(-c3ccc(N)nc3)ccnc2n1C)N1CCC(c2ccc(C(=O)N3CCC(CN4CCN(c5ccc(NC6CCC(=O)NC6=O)cc5F)CC4C(F)(F)F)CC3)cc2)CC1 (mixture of isomers) [Example 2f9, 3-((4-(4-((1-(4-(1-((S)-1-(4-(6-aminopyridin-3-yl)-1-methyl-1H-pyrrolo[2,3-b]pyridin-2-yl)-ethyl)piperidin-4-yl)benzoyl)piperidin-4-yl)methyl)-3-(trifluoromethyl)-piperazin-1-yl)-3-fluorophenyl)-amino)piperidine-2,6-dione]
